We go through four compounds from patent US9943560B2, “Medical compositions containing liquorice extracts with synergistic effect” (priority 2010, dated 2018).

Converted amounts (≈) assume the structure as drawn. “And” between values parts separate entries of the source, which are not always exact repeats. Identical values can stand only once.

The test system of series [1] is colon cancer cell strain colon38 transplanted tumor. The series is described as follows: Anti-tumor effect on colon38 transplanted tumor in mice. The class given is in vivo. The settings on record: for Death number: dead animals of 10 per group, represents side effects; for Death number / Average weight of tumor / Tumor inhibiting rate: dose as in Table VI; for Average weight of tumor: mice, once a week, four times; for Average weight of tumor / Tumor inhibiting rate: after four weeks; for Tumor inhibiting rate: vs CK group. The source says:
Based on the method described in Pharmacology Research Methodology of Chinese Medicine (Chinese TCM Publishing House), test the anti-tumor effects of Chalcone A, G007, AG007-16 etc prepared in Embodiment 1, chemotherapy drugs (5-fluorouracil) and HBD09 on animal model of human cancer heterogeneity transplanted tumor. 5-fluorouracil (short for fu) is a broad-spectrum anti-tumor drug and mainly used to cure digestive tract tumor; the common adverse reactions are sicchasia, anorexia or vomiting, abdominal discomfort or diarrhea.
The dose given is as shown in Table VI; intragastric administration/ or injection administration is given once a week and four times in total.

Series [2] deals with Colon 38. The series is described as follows: Drug combination on inhibiting tumor cells, Combination Index (Chou-Talalay), Colon 38. It counts as cell-based, murine. The settings on record: partner drugs as named in the sentence (G007, I3C, DIM, Cis-platinum). The source says:
According to the cells and experiment methods used in Embodiment 2, differences are incurred from that dose concentration is confirmed by the following methods: when two drugs are combined, the concentration of one drug is chosen to be approximate to but smaller than IC50 while the concentration of other drugs is chosen to be in gradient dilution, to perform a series of experiments. When it is experimented that 50% tumor cells are inhibited, then the concentration of all drugs used at that moment is recorded as their IC50 value, and the CI value of the two drugs can be calculated with the formula in the above document.

Series [3] has as its system Colon38 cells. As to the kind of experiment: In vitro killing of Colon38 cells (MTS, 72 h). The class given is cell-based, murine. Particulars: Colon38, 72 h. The method, then: 1. Experimental Sources of In Vitro Killing Colon38 Cells
Colon38 cells i.e. murine colon carcinoma cells, which was gifted from Dept. of Pharmacology, Yale Medical School and are a kind of adherent cells.
(§1) 90% 1640 culture solution plus 10% newborn calf serum (NCS), 100 ml in total, and then add lml miscible liquids containing 1% penicillin and 1% streptomycin.
Cultivate it in an incubator of 37° C. with 5% CO2. The cells will passage every 3 days, and carry out the experiment when the cells enter their logarithmic growth period after two or three times of passage.
2. Experiment on In Vitro Killing of SGC-7901 Cell Source: […]

Series [4] relates to MCF-7 cells. As to the kind of experiment: In vitro killing of MCF-7 cells (MTS, 72 h). It counts as cell-based, human. Particulars: MCF-7, 72 h. The method, then:
MCF-7 cells i.e. human breast cancer cells, which are bought from American ATCC, is a kind of adherent cells.
90% 1640 medium+10% fetal calf serum+30mmol/L Hepes+6 μg/ml insulin.
Its culture conditions and experimental procedures are all the same with that of the above method 1.

The subject of series [5] is postprandial blood glucose of Type 2 diabetics. As to the kind of experiment: Clinical observation: postprandial blood glucose control in high-blood-glucose patients. The class given is in vivo, human. The source says: The postprandial blood glucose of Type 2 diabetics not sensitive to insulin is an important index of abnormal glucose metabolism and can be used to test the effect of drugs in reducing blood glucose.

The test system of series [6] is PC-3 cells. The series is described as follows: In vitro killing of PC-3 cells (MTS, 72 h). The class given is cell-based. Particulars: PC-3, 72 h. The source says: 4. Experiment on In Vitro Killing of PC-3 Cell
PC-3 cells i.e. prostate cancer cells, which are bought from American ATCC, is a kind of adherent cells.
Its medium, culture conditions and experimental procedures are all the same with that of the above method 1.

Series [7] deals with SGC-7901 cells. The series is described as follows: In vitro killing of SGC-7901 cells (MTS, 72 h). It counts as cell-based, human. Particulars: SGC-7901, 72 h. The protocol: SGC-7901 cells i.e. human gastric cancer cells which are bought from Cell Bank of Chinese Academy of Sciences/Shanghai Institute of Life Sciences Cell Resource Center of Chinese Academy of Sciences are adherent cells.
as §1
Cultivate it in an incubator of 37° C. with CO2 of 5 percent. The cells will passage once every 3 days, and carry out the experiment when the cells enter their logarithmic growth period after two or three times of passage.
3. Experiment on In Vitro Killing of MCF-7 Cell Source

In the case of `O=c1[nH]cc(F)c(=O)[nH]1` [CK1(fu), 5-fluorouracil], in series [1], the Death number is 6, the “Average weight of tumor” value is 1.74 ± 0.11 g and the Tumor inhibiting rate stood at 43%.

In the case of `C=CC(C)(C)c1cc(/C=C/C(=O)c2ccc(O)cc2)c(OC)cc1O` [Chalcone A], the “synergistic effects in combination” value in series [2] is listed as “synergistic effects”. Further, the IC50 in series [3] was 9.1 µg/mL (≈ 26.9 µM); in series [4] it was 9.1 µg/mL (≈ 26.9 µM); in series [6], 7.8 µg/mL (≈ 23 µM); in series [7] it was 9.7 µg/mL (≈ 28.7 µM). For the same compound, the concentration for an effect of 80% (IC80) was 24.77 µg/mL (≈ 73.2 µM) in series [3], 21.3 µg/mL (≈ 62.9 µM) in series [4], 13.3 µg/mL (≈ 39.3 µM) in series [6] and 29.70 µg/mL (≈ 87.8 µM) in series [7]. Moreover, in series [5] (average after-meal glucose with vs without drug intake), the “ratio of glucose reduction” value came to 13.6%. In series [5] (average of three patients, two hours after meal), the “Average blood glucose, drug intake, after meal” value was 11.4 mM/L. In series [5] (high-blood-glucose patients, compared with soybean), the “effect on controlling postprandial blood glucose” value is reported as “significant effects”. In series [5] (individual patient, oral dose before meal), the “Blood glucose, drug intake, before meal” value was 7.9 mM/L and 8.6 mM/L and 8.5 mM/L. The “Blood glucose, drug intake, after meal” value in series [5] (individual patient, two hours after 300 g boiled corn, oral dose before meal) was 10.6 mM/L and 12.0 mM/L and 11.6 mM/L. Further, in series [1] (alone or in combination with 5-fluorouracil), the “anti-tumor effect and side effects in the animal model” value is given as “reduce the side effects brought by 5-fluorouracil dose”. This compound also registered a Death number in series [1] of 0. Further, the “Average weight of tumor” value in series [1] is recorded as 2.36 ± 0.13 g. In addition, the Tumor inhibiting rate in series [1] worked out at 23%.

Turning to `N.N.[Cl][Pt][Cl]` [Cis-platinum], the values for the IC50 in series [3], in series [4] and in series [7] were 3.92 µg/mL, 3.92 µg/mL and 5.4 µg/mL, respectively.

In series [3], `c1ccc2c(Cc3c[nH]c4ccccc34)c[nH]c2c1` [HBD09, bis-indolymethane] gave an IC50 of 18.59 µg/mL (≈ 75.5 µM) and an IC80 of 48.51 µg/mL (≈ 197 µM). In addition, in series [4], the IC50 was 15.6 µg/mL (≈ 63.3 µM) and the IC80 came to 31.2 µg/mL (≈ 127 µM). Further, in series [6], the IC50 came out at 13.8 µg/mL (≈ 56 µM) and the concentration for an effect of 80% (IC80) was 23.9 µg/mL (≈ 97 µM). Also, in series [7], the concentration for half-maximal inhibition (IC50) was found to be 18.2 µg/mL (≈ 73.9 µM) and the 80% effect concentration (IC80) was 51.24 µg/mL (≈ 208 µM). Further, in series [1], the Death number is on record as 2, the “Average weight of tumor” value is listed as 2.6 ± 0.15 g and the Tumor inhibiting rate came to 15%.
